Experimental data reported in PubChem BioAssay AID226 (DTP/NCI, 2004).
Several values for one entry are separate records, joined by “and”; a condition that tells them apart may be missing. Equal entries are not always repeated. Toxic doses and inconclusive results are not listed.

Test system: B6C3F1 mice, intracerebral ependymoblastoma, median survival T/C
Experiment: NCI In Vivo Anticancer Drug Screen. Data for tumor model Ependymoblastoma (intracerebral) in B6C3F1 mice
Conditions: endpoint: median survival time, higher = longer survival
Method: The antitumor activity of compounds was measured in mice bearing transplantable tumors. Survival or tumor size were measured and the results are expressed as the measurement made in the treated group (T) divided by the measurement made in the vehicle treated control group (C). The tumor model used in this assay is Ependymoblastoma (intracerebral) in B6C3F1 mice

[1] = dose: 32.0 mg/kg/injection, schedule: Q01DX005 (ip), vehicle: saline with Tween-80
[2] = dose: 128.0 mg/kg/injection, schedule: Q01DX005 (ip), vehicle: saline with Tween-80
[3] = dose: 8.0 mg/kg/injection, schedule: Q01DX005 (ip), vehicle: saline
[4] = dose: 16.0 mg/kg/injection, schedule: Q01DX005 (ip), vehicle: saline
[5] = dose: 32.0 mg/kg/injection, schedule: Q01DX005 (ip), vehicle: saline
[6] = dose: 64.0 mg/kg/injection, schedule: Q01DX005 (ip), vehicle: saline
[7] = dose: 16.0 mg/kg/injection, schedule: Q01DX005 (ip), vehicle: saline with Tween-80
[8] = dose: 6.25 mg/kg/injection, schedule: Q01DX005 (ip), vehicle: saline with Tween-80
[9] = dose: 12.5 mg/kg/injection, schedule: Q01DX005 (ip), vehicle: Klucel (hydroxypropylcellulose) (HPC)
[10] = dose: 25.0 mg/kg/injection, schedule: Q01DX005 (ip), vehicle: Klucel (hydroxypropylcellulose) (HPC)
[11] = dose: 50.0 mg/kg/injection, schedule: Q01DX005 (ip), vehicle: Klucel (hydroxypropylcellulose) (HPC)

SMILES: O=C(N/N=C\c1cc(Br)cc(Br)c1O)N/N=C/c1cc(Br)cc(Br)c1O
- T/C [1]: 109 % of control
- T/C (dose: 64.0 mg/kg/injection, schedule: Q01DX005 (ip), vehicle: saline with Tween-80): 106 % of control
- T/C [2]: 105 % of control
- T/C (dose: 256.0 mg/kg/injection, schedule: Q01DX005 (ip), vehicle: saline with Tween-80): 106 % of control
- T/C (dose: 512.0 mg/kg/injection, schedule: Q01DX005 (ip), vehicle: saline with Tween-80): 99 % of control

SMILES: c1ccc([C@H]2CN3CCSC3=N2)cc1
- T/C (dose: 10.0 mg/kg/injection, schedule: Q01DX005 (ip), vehicle: saline): 114 % of control
- T/C (dose: 20.0 mg/kg/injection, schedule: Q01DX005 (ip), vehicle: saline): 107 % of control
- T/C (dose: 40.0 mg/kg/injection, schedule: Q01DX005 (ip), vehicle: saline): 110 % of control

SMILES: COc1ccc(C[C@H](N)C(=O)NC2C(CO)OC(n3cnc4c(N(C)C)ncnc43)C2O)cc1 (stereo partly specified)
- T/C [3]: 101 % of control
- T/C [4]: 101 % of control
- T/C [5]: 103 % of control
- T/C [6]: 94 % of control
- T/C (dose: 128.0 mg/kg/injection, schedule: Q01DX005 (ip), vehicle: saline): 102 % of control

SMILES: O=C1c2ccccc2C(=O)c2c(NCCNCCO)ccc(NCCNCCO)c21
- T/C (dose: 1.0 mg/kg/injection, schedule: Q04DX003 (ip), vehicle: Klucel (hydroxypropylcellulose) (HPC)): 107 % of control
- T/C (dose: 1.0 mg/kg/injection, schedule: Q04DX003 (ip), vehicle: water): 102 % of control
- T/C (dose: 2.0 mg/kg/injection, schedule: Q01DX005 (ip), vehicle: saline with Tween-80): 102 % of control [middle of 4 runs]
- T/C (dose: 2.0 mg/kg/injection, schedule: Q04DX003 (ip), vehicle: Klucel (hydroxypropylcellulose) (HPC)): 97 % of control
- T/C (dose: 2.0 mg/kg/injection, schedule: Q04DX003 (ip), vehicle: water): 101 % of control
- T/C (dose: 4.0 mg/kg/injection, schedule: Q01DX005 (ip), vehicle: saline with Tween-80): 101 % of control [middle of 4 runs]
- T/C (dose: 4.0 mg/kg/injection, schedule: Q04DX003 (ip), vehicle: Klucel (hydroxypropylcellulose) (HPC)): 101 % of control
- T/C (dose: 4.0 mg/kg/injection, schedule: Q04DX003 (ip), vehicle: water): 92 % of control
- T/C (dose: 8.0 mg/kg/injection, schedule: Q01DX005 (ip), vehicle: saline with Tween-80): 109 % of control [middle of 4 runs]
- T/C (dose: 8.0 mg/kg/injection, schedule: Q04DX003 (ip), vehicle: Klucel (hydroxypropylcellulose) (HPC)): 110 % of control
- T/C (dose: 8.0 mg/kg/injection, schedule: Q04DX003 (ip), vehicle: water): 102 % of control
- T/C [7]: 113 % of control [middle of 4 runs]
- T/C (dose: 16.0 mg/kg/injection, schedule: Q04DX003 (ip), vehicle: Klucel (hydroxypropylcellulose) (HPC)): 108 % of control
- T/C (dose: 16.0 mg/kg/injection, schedule: Q04DX003 (ip), vehicle: water): 92 % of control
- T/C [1]: 94 % of control and 110 % of control and 116 % of control
- T/C (dose: 32.0 mg/kg/injection, schedule: Q04DX003 (ip), vehicle: Klucel (hydroxypropylcellulose) (HPC)): 108 % of control
- T/C (dose: 32.0 mg/kg/injection, schedule: Q04DX003 (ip), vehicle: water): 94 % of control
- T/C (dose: 64.0 mg/kg/injection, schedule: Q04DX003 (ip), vehicle: Klucel (hydroxypropylcellulose) (HPC)): 97 % of control
- T/C (dose: 128.0 mg/kg/injection, schedule: Q04DX003 (ip), vehicle: Klucel (hydroxypropylcellulose) (HPC)): 92 % of control

SMILES: CC(C)c1cc(C(=O)O)c(O)c(C(C)C)c1.CC(C)c1cc(C(=O)O)c(O)c(C(C)C)c1.[Cu]
- T/C [8]: 103 % of control
- T/C (dose: 12.5 mg/kg/injection, schedule: Q01DX005 (ip), vehicle: saline with Tween-80): 103 % of control

SMILES: COc1cc(C[C@H]2c3cc(OC)c(OC)cc3CCN2C)c(Oc2cc3c(cc2OC)-c2c(OC)c(OC)cc4c2[C@H](C3)N(C)CC4)cc1OC
- T/C [9]: 94 % of control
- T/C [10]: 100 % of control
- T/C [11]: 100 % of control and 102 % of control and 105 % of control
- T/C (dose: 100.0 mg/kg/injection, schedule: Q01DX005 (ip), vehicle: Klucel (hydroxypropylcellulose) (HPC)): 102 % of control

SMILES: CN(C)/N=N/c1nc[nH]c1C(N)=O
- T/C (dose: 3.12 mg/kg/injection, schedule: Q01DX005 (ip), vehicle: saline with Tween-80): 120 % of control
- T/C [8]: 114 % of control
- T/C [9]: 115 % of control
- T/C [7]: 111 % of control
- T/C [10]: 114 % of control
- T/C [11]: 120 % of control
- T/C (dose: 100.0 mg/kg/injection, schedule: Q01DX005 (ip), vehicle: saline with Tween-80): 156 % of control
- T/C [2]: 155 % of control

SMILES: Nc1nc(=S)c2ncn(C3OC(COC(=O)c4ccc(Cl)cc4)C(OC(=O)c4ccc(Cl)cc4)C3OC(=O)c3ccc(Cl)cc3)c2[nH]1 (stereo unspecified)
- T/C (dose: 18.75 mg/kg/injection, schedule: Q01DX005 (ip), vehicle: Klucel (hydroxypropylcellulose) (HPC)): 101 % of control
- T/C (dose: 37.5 mg/kg/injection, schedule: Q01DX005 (ip), vehicle: Klucel (hydroxypropylcellulose) (HPC)): 102 % of control
- T/C (dose: 75.0 mg/kg/injection, schedule: Q01DX005 (ip), vehicle: Klucel (hydroxypropylcellulose) (HPC)): 98 % of control and 115 % of control

SMILES: CN=NNc1nc[nH]c1C(N)=O
- T/C [3]: 99 % of control
- T/C [4]: 106 % of control
- T/C [5]: 110 % of control
- T/C [6]: 123 % of control

SMILES: COC1OC(CNC(=O)N(C)N=O)C(O)C(O)C1O (stereo unspecified)
- T/C (dose: 25.0 mg/kg/injection, schedule: Q01DX005 (ip), vehicle: saline): 124 % of control
- T/C (dose: 50.0 mg/kg/injection, schedule: Q01DX005 (ip), vehicle: saline): 121 % of control
- T/C (dose: 400.0 mg/kg/injection, schedule: Q01DX005 (ip), vehicle: saline): 164 % of control

SMILES: CCCCCCCC(=O)O[C@H]1[C@H]2[C@@H](CC1(C)C)C(=O)[C@]13O[C@H]1C(=O)[C@]1(CO1)[C@]23C
- T/C (dose: 0.62 mg/kg/injection, schedule: Q01DX005 (ip), vehicle: Klucel (hydroxypropylcellulose) (HPC)): 107 % of control
- T/C (dose: 1.25 mg/kg/injection, schedule: Q01DX005 (ip), vehicle: Klucel (hydroxypropylcellulose) (HPC)): 106 % of control
- T/C (dose: 2.5 mg/kg/injection, schedule: Q01DX005 (ip), vehicle: Klucel (hydroxypropylcellulose) (HPC)): 111 % of control
- T/C (dose: 5.0 mg/kg/injection, schedule: Q01DX005 (ip), vehicle: Klucel (hydroxypropylcellulose) (HPC)): 110 % of control
- T/C (dose: 10.0 mg/kg/injection, schedule: Q01DX005 (ip), vehicle: Klucel (hydroxypropylcellulose) (HPC)): 102 % of control
- T/C (dose: 20.0 mg/kg/injection, schedule: Q01DX005 (ip), vehicle: Klucel (hydroxypropylcellulose) (HPC)): 101 % of control

SMILES: O=NN(CCF)C(=O)NC1CCC(=O)NC1=O (stereo unspecified)
- T/C (dose: 5.18 mg/kg/injection, schedule: Q01DX005 (ip), vehicle: Klucel (hydroxypropylcellulose) (HPC)): 186 % of control
- T/C (dose: 8.64 mg/kg/injection, schedule: Q01DX005 (ip), vehicle: Klucel (hydroxypropylcellulose) (HPC)): 232 % of control
- T/C (dose: 14.4 mg/kg/injection, schedule: Q01DX005 (ip), vehicle: Klucel (hydroxypropylcellulose) (HPC)): 357 % of control
- T/C (dose: 24.0 mg/kg/injection, schedule: Q01DX005 (ip), vehicle: Klucel (hydroxypropylcellulose) (HPC)): 357 % of control
